How the values were obtained:
[1] = Oral bioavailability in rat; assay type: ADME, organism-based; conditions: in vivo
[2] = Lipophilicity, log D of the compound at pH 7.4; conditions: buffer
Carboxypeptidase B2 [3] = biological target: T1, Carboxypeptidase B2 (Homo sapiens, UniProt Q96IY4); assay: Inhibition of human TAF1a
T1 sequence (Q96IY4 whole entry): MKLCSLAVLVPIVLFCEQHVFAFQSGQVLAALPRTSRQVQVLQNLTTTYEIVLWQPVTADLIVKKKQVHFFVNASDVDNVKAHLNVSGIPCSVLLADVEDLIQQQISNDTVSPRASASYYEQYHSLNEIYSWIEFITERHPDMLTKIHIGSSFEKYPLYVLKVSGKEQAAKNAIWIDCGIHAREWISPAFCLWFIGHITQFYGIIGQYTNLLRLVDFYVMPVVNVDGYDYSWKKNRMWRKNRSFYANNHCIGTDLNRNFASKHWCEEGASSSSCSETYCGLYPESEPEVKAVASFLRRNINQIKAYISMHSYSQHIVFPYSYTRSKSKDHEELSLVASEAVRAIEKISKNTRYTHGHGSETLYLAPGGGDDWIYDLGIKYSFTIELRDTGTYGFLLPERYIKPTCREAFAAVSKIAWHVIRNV

Carboxypeptidase B2 [4] = biological target: T1, Carboxypeptidase B2; assay: Inhibition of […] in human plasma assessed as clot lysis
[5] = biological target: T2, Carboxypeptidase N catalytic chain (Homo sapiens, UniProt P15169); assay: Inhibition of carboxypeptidase N (unknown origin)
T2 sequence (P15169 whole entry): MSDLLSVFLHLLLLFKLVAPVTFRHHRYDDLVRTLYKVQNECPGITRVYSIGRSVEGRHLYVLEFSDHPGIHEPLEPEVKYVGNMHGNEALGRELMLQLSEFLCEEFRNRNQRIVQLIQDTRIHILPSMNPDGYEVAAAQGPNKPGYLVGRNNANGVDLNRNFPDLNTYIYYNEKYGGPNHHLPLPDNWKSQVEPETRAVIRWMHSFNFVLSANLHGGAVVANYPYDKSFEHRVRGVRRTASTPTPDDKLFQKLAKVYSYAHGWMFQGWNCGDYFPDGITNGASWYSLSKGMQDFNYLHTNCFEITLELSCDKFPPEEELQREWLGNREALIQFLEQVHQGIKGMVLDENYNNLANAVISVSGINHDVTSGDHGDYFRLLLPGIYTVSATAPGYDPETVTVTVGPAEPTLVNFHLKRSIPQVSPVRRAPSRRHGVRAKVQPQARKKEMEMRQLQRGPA

Carboxypeptidase B2 [6] = biological target: T1, Carboxypeptidase B2; assay: Inhibition of human […] using hippuryl-L-arginine/hippuryl-L-lysine as substrate by liquid chromatographic analysis
[7] = Clearance in rat; assay type: ADME, organism-based; conditions: in vivo
[8] = biological target: Phosphodiesterase 4 (Homo sapiens) (UniProt P27815+Q08499+Q07343+Q08493); assay: Inhibition of PDE4 (unknown origin) at 10 uM; assay type: protein assay
[9] = Tmax in rat; assay type: ADME, organism-based; conditions: in vivo
[10] = Clearance in dog; assay type: ADME, organism-based, Canis lupus familiaris; conditions: in vivo
[11] = Oral bioavailability in rat at 20 umol/kg; assay type: ADME, organism-based; conditions: in vivo
[12] = Oral bioavailability in rat at 6.8 umol/kg; assay type: ADME, organism-based; conditions: in vivo

| Compound | bioavailability [1] [%] | logD [2] | IC50 (Carboxypeptidase B2 [3]) [µM] | IC50 (Carboxypeptidase B2 [4]) [µM] | IC50 [5] [µM] | IC50 (Carboxypeptidase B2 [6]) [µM] | clearance [7] [mL/min/kg] | inhibition [8] [%] | Tmax [9] [min] | clearance [10] [mL/min/kg] | bioavailability [11] [%] | bioavailability [12] [%] |
| --- | --- | --- | --- | --- | --- | --- | --- | --- | --- | --- | --- | --- |
| CCCn1cnc(CC(NCCN)C(=O)O)c1 (stereo not drawn) | – | – | – | 8 | – | 0.62 | – | – | – | – | – | – |
| NCCC[C@@]1(C(=O)O)CCn2c(-c3ccccc3)cnc2C1 | 4.9 | < 0 | 0.066 | 1.3 | > 1000 | – | 12 | 79 | – | – | – | – |
| CCCn1cnc2c1CC[C@@](CCCN)(C(=O)O)C2 | – | < 0 | – | – | > 1000 | – | 6 | – | 12 | – | 2 | 8 |
| CCc1cnc2n1CCC(CCCN)(C(=O)O)C2 (racemic) | – | – | 2.27 | > 100 | > 1000 | – | – | – | – | – | – | – |
| CC(C)CCn1cnc2c1CC[C@@](CCCN)(C(=O)O)C2.Cl | 1.4 | < 0 | < 0.041 | 0.1 | > 1000 | – | – | – | – | – | – | – |

Other lines, results leading:

| bioavailability [1] [%] | logD [2] | IC50 (Carboxypeptidase B2 [3]) [µM] | IC50 (Carboxypeptidase B2 [4]) [µM] | IC50 [5] [µM] | IC50 (Carboxypeptidase B2 [6]) [µM] | clearance [7] [mL/min/kg] | inhibition [8] [%] | Tmax [9] [min] | clearance [10] [mL/min/kg] | bioavailability [11] [%] | bioavailability [12] [%] | Compound |
| --- | --- | --- | --- | --- | --- | --- | --- | --- | --- | --- | --- | --- |
| 1.7 | 1 | 0.106 | 2.5 | > 1000 | – | – | – | – | – | – | – | NCCC[C@@]1(C(=O)O)CCc2c(ncn2Cc2cccc(-c3ccccc3)c2)C1 |
| 75 | – | – | 0.4 | – | 0.087 | 27 | – | 30 | – | – | – | C[C@@H](S)[C@@H](Cc1ccc(N)nc1)C(=O)O |
| – | – | 0.585 | 7.1 | > 1000 | – | – | – | – | – | – | – | NCCCC1(C(=O)O)CCc2c(ncn2-c2ccccc2)C1 (racemic) |
| – | 3.6 | 0.124 | 16 | > 1000 | – | – | – | – | – | – | – | NCCCC1(C(=O)O)CCc2c(ncn2CCC2CCC(C3CCCCC3)CC2)C1 (racemic) |
| 1.4 | < 0 | 0.117 | 0.08 | > 1000 | – | 6.2 | 79 | – | 3.5 | – | – | NCCC[C@@]1(C(=O)O)CCc2c(ncn2C2CCCCC2)C1 |
| – | – | – | 5 | – | 0.45 | 2 | – | 60 | – | 8 | – | CCCn1cnc(C[C@H](CCCN)C(=O)O)c1 [UK-396,082] |
| 0.9 | 2.4 | < 0.041 | 3.2 | > 1000 | – | – | – | – | – | – | – | Cl.NCCC[C@@]1(C(=O)O)CCn2c(-c3cccc(-c4ccc(Cl)cc4Cl)c3)cnc2C1 |
